The values below come from patent US20250026759A1 (Merck Sharp & Dohme LLC, priority 2023, published 2025).

The subject of one assay is PBMCs infected with VSV-G pseudotyped HIV virus (VSV-G/pNLG1-P2A-ΔEnv). Briefly: cells. The class given is cell-based, human. As to conditions: Homo sapiens, PBMC, read-out: TACK EC50.
As usually defined, the EC50 is the concentration needed to bring the measured effect to its halfway point. In the case of `CC(F)(F)[C@@]1(C#CC2CC2)NC(=O)Nc2cc(CN3C(=O)CNC3=O)c(F)cc21` [Example 14, (S)-3-((4-(cyclopropylethynyl)-4-(1,1-difluoroethyl)-6-fluoro-2-oxo-1,2,3,4-tetrahydroquinazolin-7-yl)methyl)imidazolidine-2,4-dione], the EC50 turned out to be 24.8 nM.

Turning to `O=C1Nc2cc(Cn3ncc4c3CCOC4)c(F)cc2[C@@](C#CC2CC2)(C(F)(F)F)N1` (single isomer, unassigned) [Example 22], the EC50 amounted to 60.5 nM.

For the molecule `Cc1cn(Cc2cc3c(cc2F)[C@@](C#CC2CC2)(C(C)(F)F)NC(=O)N3)nc1N` [Example 45, (S)-7-((3-amino-4-methyl-1H-pyrazol-1-yl)methyl)-4-(cyclopropylethynyl)-4-(1,1-difluoroethyl)-6-fluoro-3,4-dihydroquinazolin-2(1H)-one], the EC50 was determined as 13.1 nM.

With `COc1nn(Cc2cc3c(cc2F)[C@@](C#CC2CC2)(C(C)(F)F)NC(=O)N3)cc1Cl` [Example 95, (S)-7-((4-chloro-3-methoxy-1H-pyrazol-1-yl)methyl)-4-(cyclopropylethynyl)-4-(1,1-difluoroethyl)-6-fluoro-3,4-dihydroquinazolin-2(1H)-one], the EC50 was 24.1 nM.

On to `O=C1Nc2cc(Cn3cn[nH]c3=O)c(F)cc2[C@@](C#CC2CC2)(C(F)(F)F)N1` [Example 34, (S)-4-(cyclopropylethynyl)-6-fluoro-7-((5-oxo-1,5-dihydro-4H-1,2,4-triazol-4-yl)methyl)-4-(trifluoromethyl)-3,4-dihydroquinazolin-2(1H)-one], for which the EC50 was 44.6 nM.

As for `O=C1Nc2cc(Cn3c(=O)oc4ccccc43)c(F)cc2[C@@](C#CC2CC2)(C(F)(F)F)N1` [Example 13, (S)-3-((4-(cyclopropylethynyl)-6-fluoro-2-oxo-4-(trifluoromethyl)-1,2,3,4-tetrahydroquinazolin-7-yl)methyl)benzo[d]oxazol-2(3H)-one], the EC50 was 14.3 nM.

With `Cc1n[nH]c(=O)n1Cc1cc2c(cc1F)[C@@](C#CC1CC1)(C(F)(F)F)NC(=O)N2` [Example 33, (S)-4-(cyclopropylethynyl)-6-fluoro-7-((3-methyl-5-oxo-1,5-dihydro-4H-1,2,4-triazol-4-yl)methyl)-4-(trifluoromethyl)-3,4-dihydroquinazolin-2(1H)-one], the half-maximal effective concentration (EC50) worked out at 23.6 nM.

Take `CC(F)(F)[C@@]1(C#CC2CC2)NC(=O)Nc2cc(Cn3ccc(C=O)n3)c(F)cc21` [Example 102, (S)-1-((4-(cyclopropylethynyl)-4-(1,1-difluoroethyl)-6-fluoro-2-oxo-1,2,3,4-tetrahydroquinazolin-7-yl)methyl)-1H-pyrazole-3-carbaldehyde]: the EC50 stood at 26.8 nM.

Take `Cn1ccnc1C(=O)NCc1cc2c(cc1F)[C@@](C#CC1CC1)(C(C)(F)F)NC(=O)N2` [Example 82, (S)-N-((4-(cyclopropylethynyl)-4-(1,1-difluoroethyl)-6-fluoro-2-oxo-1,2,3,4-tetrahydroquinazolin-7-yl)methyl)-1-methyl-1H-imidazole-2-carboxamide]: the EC50 was determined as 154 nM.

Regarding `O=C1Nc2cc(Cn3ccc(CO)n3)c(F)cc2[C@@](C#CC2CC2)(C(F)(F)F)N1` (single isomer, unassigned) [Example 6], the EC50 is 17.1 nM.

`O=C1Nc2cc(Cn3cc4ccncc4n3)c(F)cc2[C@@](C#CC2CC2)(C(F)(F)F)N1` (single isomer, unassigned) [Example 26]: the EC50 came to 13.6 nM.

For `COCc1ccn(Cc2cc3c(cc2F)[C@@](C#CC2CC2)(C(C)(F)F)NC(=O)N3)n1` [Example 54, (S)-4-(cyclopropylethynyl)-4-(1,1-difluoroethyl)-6-fluoro-7-((3-(methoxymethyl)-1H-pyrazol-1-yl)methyl)-3,4-dihydroquinazolin-2(1H)-one], the EC50 is 33.5 nM.

For `CC(F)(F)[C@@]1(C#CC2CC2)NC(=O)Nc2cc(Cn3nc(N)cc3Cl)c(F)cc21` [Example 60, (S)-7-((3-amino-5-chloro-1H-pyrazol-1-yl)methyl)-4-(cyclopropylethynyl)-4-(1,1-difluoroethyl)-6-fluoro-3,4-dihydroquinazolin-2(1H)-one], the EC50 is 28.9 nM.

`O=C1Nc2cc(CN3C(=O)CNC3=O)c(F)cc2[C@@](C#CC2CC2)(C(F)(F)F)N1` [Example 29, (S)-3-((4-(cyclopropylethynyl)-6-fluoro-2-oxo-4-(trifluoromethyl)-1,2,3,4-tetrahydroquinazolin-7-yl)methyl)imidazolidine-2,4-dione]: the half-maximal effective concentration (EC50) is 27.4 nM.

As for `CC(F)(F)[C@@]1(C#CC2CC2)NC(=O)Nc2cc(Cn3cncc3CO)c(F)cc21` (single isomer, unassigned) [Example 50], the 50% effective concentration (EC50) worked out at 68.1 nM.

As for `CC(F)(F)[C@@]1(C#CC2CC2)NC(=O)Nc2cc(Cn3ccc(OC(F)F)n3)c(F)cc21` [Example 63, (S)-4-(cyclopropylethynyl)-4-(1,1-difluoroethyl)-7-((3-(difluoromethoxy)-1H-pyrazol-1-yl)methyl)-6-fluoro-3,4-dihydroquinazolin-2(1H)-one], the concentration for a half-maximal effect (EC50) was found to be 33.5 nM.

On to `Cc1nnn(Cc2cc3c(cc2F)[C@@](C#CC2CC2)(C(F)(F)F)NC(=O)N3)n1` [Example 118, (S)-4-(cyclopropylethynyl)-6-fluoro-7-((5-methyl-2H-tetrazol-2-yl)methyl)-4-(trifluoromethyl)-3,4-dihydroquinazolin-2(1H)-one], for which the EC50 is 36.4 nM.

Regarding `CC(F)(F)[C@@]1(C#CC2CC2)NC(=O)Nc2cc(Cn3cc(F)c(C(N)=O)n3)c(F)cc21` (single isomer, unassigned) [Example 104], the EC50 came to 14.6 nM.

For the molecule `COCc1cnn(Cc2cc3c(cc2F)[C@@](C#CC2CC2)(C(C)(F)F)NC(=O)N3)c1` [Example 64, (S)-4-(cyclopropylethynyl)-4-(1,1-difluoroethyl)-6-fluoro-7-((4-(methoxymethyl)-1H-pyrazol-1-yl)methyl)-3,4-dihydroquinazolin-2(1H)-one], the concentration for a half-maximal effect (EC50) is 34 nM.

On to `Cc1cn(Cc2cc3c(cc2F)[C@@](C#CC2CC2)(C(C)(F)F)NC(=O)N3)nc1CO` [Example 68, (S)-4-(cyclopropylethynyl)-4-(1,1-difluoroethyl)-6-fluoro-7-((3-(hydroxymethyl)-4-methyl-1H-pyrazol-1-yl)methyl)-3,4-dihydroquinazolin-2(1H)-one], for which the EC50 was found to be 31 nM.

Turning to `COc1nccn1Cc1cc2c(cc1F)[C@@](C#CC1CC1)(C(C)(F)F)NC(=O)N2` [Example 74, (S)-4-(cyclopropylethynyl)-4-(1,1-difluoroethyl)-6-fluoro-7-((2-methoxy-1H-imidazol-1-yl)methyl)-3,4-dihydroquinazolin-2(1H)-one], the EC50 amounted to 38.1 nM.

For the molecule `CC(F)(F)[C@@]1(C#CC2CC2)NC(=O)Nc2cc(Cn3cc(Cl)cn3)c(F)cc21` [Example 16, (S)-7-((4-chloro-1H-pyrazol-1-yl)methyl)-4-(cyclopropylethynyl)-4-(1,1-difluoroethyl)-6-fluoro-3,4-dihydroquinazolin-2(1H)-one], the EC50 stood at 32.4 nM.

As to `CC(F)(F)[C@@]1(C#CC2CC2)NC(=O)Nc2cc(Cn3ncnc3N)c(F)cc21` (single isomer, unassigned) [Example 105], the EC50 was 10.9 nM.

Regarding `COCc1nn(Cc2cc3c(cc2F)[C@@](C#CC2CC2)(C(C)(F)F)NC(=O)N3)cc1Cl` [Example 66, (S)-7-((4-chloro-3-(methoxymethyl)-1H-pyrazol-1-yl)methyl)-4-(cyclopropylethynyl)-4-(1,1-difluoroethyl)-6-fluoro-3,4-dihydroquinazolin-2(1H)-one], the EC50 came out at 38.9 nM.

For `COc1ccn(Cc2cc3c(cc2F)[C@@](C#CC2CC2)(C(C)(F)F)NC(=O)N3)n1` [Example 57, (S)-4-(cyclopropylethynyl)-4-(1,1-difluoroethyl)-6-fluoro-7-((3-methoxy-1H-pyrazol-1-yl)methyl)-3,4-dihydroquinazolin-2(1H)-one], the EC50 came out at 12.8 nM.

Consider `CN(C)Cc1ccn(Cc2cc3c(cc2F)[C@@](C#CC2CC2)(C(C)(F)F)NC(=O)N3)n1` [Example 126, (S)-4-(cyclopropylethynyl)-4-(1,1-difluoroethyl)-7-((3-((dimethylamino)methyl)-1H-pyrazol-1-yl)methyl)-6-fluoro-3,4-dihydroquinazolin-2(1H)-one], for which the EC50 turned out to be 101 nM.

Take `CN1C(=O)Nc2cc(CN3C(=O)CNC3=O)c(F)cc2[C@@]1(C#CC1CC1)C(F)(F)F` [Example 42, (S)-3-((4-(cyclopropylethynyl)-6-fluoro-3-methyl-2-oxo-4-(trifluoromethyl)-1,2,3,4-tetrahydroquinazolin-7-yl)methyl)imidazolidine-2,4-dione]: the EC50 was found to be 38.8 nM.

Regarding `CC(F)(F)[C@@]1(C#CC2CC2)NC(=O)Nc2cc(Cn3ccc(CO)n3)c(Cl)cc21` [Example 48, (S)-6-chloro-4-(cyclopropylethynyl)-4-(1,1-difluoroethyl)-7-((3-(hydroxymethyl)-1H-pyrazol-1-yl)methyl)-3,4-dihydroquinazolin-2(1H)-one], the EC50 amounted to 29.6 nM.

For `CC(F)(F)[C@@]1(C#CC2CC2)NC(=O)Nc2cc(Cn3cccn3)c(F)cc21` [Example 55, (S)-7-((1H-pyrazol-1-yl)methyl)-4-(cyclopropylethynyl)-4-(1,1-difluoroethyl)-6-fluoro-3,4-dihydroquinazolin-2(1H)-one], the EC50 was determined as 21.7 nM.

Take `CN1C(=O)NC(=O)C1Cc1cc2c(cc1F)[C@@](C#CC1CC1)(C(C)(F)F)NC(=O)N2` (single isomer, unassigned) [Example 124, (S or R)-5-(((S)-4-(cyclopropylethynyl)-4-(1,1-difluoroethyl)-6-fluoro-2-oxo-1,2,3,4-tetrahydroquinazolin-7-yl)methyl)-1-methylimidazolidine-2,4-dione]: the EC50 worked out at 90.4 nM.

Staying with this assay, now noted: read-out: TACK EC50.
In the case of `CN1C(=O)NC(=O)C1Cc1cc2c(cc1F)[C@@](C#CC1CC1)(C(C)(F)F)NC(=O)N2` (single isomer, unassigned) [Example 125, (R or S)-5-(((S)-4-(cyclopropylethynyl)-4-(1,1-difluoroethyl)-6-fluoro-2-oxo-1,2,3,4-tetrahydroquinazolin-7-yl)methyl)-1-methylimidazolidine-2,4-dione], the EC50 amounted to 111 nM.
